According to US20210395406A1, “REVERSIBLE CROSS-LINKING SYSTEM FOR POLYVINYLAMINES” (SOLENIS TECHNOLOGIES, L.P., priority 2020, published 2021):
In brackets after ≈: the same amount, converted by molar mass. Counter-ions that a name gives are not always drawn.

Experiments:
[1] = Oscillatory shear rheology of PVAm hydrogels cross-linked with OBP; format: physicochemical
Experimental: To investigate the mechanical properties of the hydrogel and to confirm the formation of cross-linking points from a mechanical point of view, dynamic rheological measurements were performed. Hydrogel samples with a varying degree of cross-linking (DC=n(OBP)/n(Am) [mol %]) in the range of 1-5 mol % and a water content of 94 wt % were analyzed under oscillatory shear. […] All samples show an elastic response over the entire frequency range, with G′ distinctly exceeding G″ by two magnitudes. Additionally, a frequency independent behavior for G′ is observed.
Rheological properties of the hydrogels were analyzed via oscillatory shear experiments on the strain-controlled rotational rheometer Ares G2 (TA Instruments, Eschborn, Germany). Hydrogel samples with a varying degree of cross-linking (DC) between 1 and 5 mol % (DC=n(OBP)/n(Am) [mol %]) were prepared in a cylindrical PTFE mold with a diameter of ˜30 mm to obtain uniform disc-shaped specimens. The cross-linking agent (OBP) was first dissolved in 1 ml H2O and then mixed with 3 ml of the 6.6 wt % PVAm solution. The mold was sealed and the cross-linking reaction was allowed to proceed overnight.
The test geometry was a 30 mm diameter plate made from aluminum. The geometry was lowered until a constant axial force of 0.5 N was applied to the sample and the temperature was controlled to 25±0.1° C. by a Peltier element (Advanced Peltier System, TA Instruments). First, an oscillatory strain sweep was performed with a constant frequency of f=1 Hz by varying the strain from γ0=0.01-1000% to determine the linear viscoelastic (LVE) regime. The values at a strain of γ0=0.1% were chosen to be representative for the LVE regime. Subsequently, frequency sweeps were employed at a fixed strain of 0.1% while the frequency was varied from 0.03 to 100 Hz. To study the self-healing properties, the sample with DC=3 mol % was cut and subsequently cured in a sealed mold at 70° C. for 3 h.

[2] = Water solubility of cross-linkers
[3] = Reversibility of cross-linking by means of pH-change; format: physicochemical; conditions: gel of 3.9 g Example 2.1 at pH 7 crosslinked with 0.075 g OBP, after adding 2 ml hydrochloric acid (10 w %)
Experimental: 3.9 g Example 2.1 at 7 pH stained with rhodamine B were crosslinked with 0.075 g OBP dissolved in 1 mL water at RT. The cross-linking reaction produces within a few seconds a solid gel. After adding 2 ml of hydrochloric acid (10 w %) it takes about 2 h till the gel is completely liquefied. When setting the pH back to neutral by adding caustic the gel is instantaneously formed again.

SMILES	melting point [°C]	mechanical strength ([1]; PVAm hydrogels cross-linked with OBP, at higher DC values, water content 94 wt %)	storage modulus ([1]; PVAm/OBP hydrogel DC=3 mol %, after first self-healing cycle) [kPa]	storage modulus ([1]; PVAm/OBP hydrogel DC=3 mol %, before first self-healing cycle)	decrease of G′ ([1]; PVAm/OBP hydrogel DC=3 mol %, cut and measured directly without curing) [%]	decrease of the storage modulus ([1]; PVAm/OBP hydrogel DC=3 mol %, first self-healing cycle, cut and cured at 70° C. for 3 h) [%]	solubility [2] [mg/mL]	time till the gel is completely liquefied [3]
O=C1CCN(C(=O)C(=O)N2CCC(=O)CC2)CC1 (as salt: hydrochloride) (hydrate or solvate) [Example 1.1, 1,2-bis(4-oxopiperidin-1-yl)ethane-1,2-dione]	174	–	–	–	–	–	–	–
O=C1CCN(C(=O)C(=O)N2CCC(=O)CC2)CC1 [Example 1.1, 1,2-bis(4-oxopiperidin-1-yl)ethane-1,2-dione]	–	up to 15 kPa	~6	approximately 7 kPa	42	14	60 (≈ 238 mM)	about 2 h
O=C1CCN(C(=O)c2ccc(C(=O)N3CCC(=O)CC3)cc2)CC1 [Example 1.2, 1,1′-Terephthaloylbis(piperidin-4-one)]	–	–	–	–	–	–	0.5 (≈ 1.52 mM)	–
